Test system: H358 cells
Assay: Cell activity experiment: activity test of H358 cells (MTT, 5 days)
Format: cell-based
Conditions: 5 days incubation, absorbance 492 nm
Summary of the method: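 Viability was read by MTT: 4 h dye incubation, DMSO solubilisation, absorbance at 492 nm. This followed 5 days' treatment (37° C., 5% CO2) of H358 cells, pre-grown 24 h, with eight-point 3-fold dilutions up to 10000 nM final, 0.5% DMSO final, triplicate wells.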

Row | SMILES | IC50 (Homo sapiens, NCI-H358, 120 h) | IC50
1 | C=CC(=O)N1CCN(c2nc(OC[C@@H]3C[C@@H](F)CN3C)nc3cc(-c4cccc5cccc(Cl)c45)c(Cl)cc23)C[C@@H]1CC#N [Example 468] | 0.075 µM | 
2 | C=CC(=O)N1CCN(c2nc(OC[C@@H]3CCCN3C)nc3c(F)c(-c4cccc5c4[C@H]4C[C@H]4C5)ncc23)C[C@@H]1CC#N [Example 56, 2-((S)-1-acryloyl-4-(8-fluoro-2-(((S)-1-methylpyrrolidin-2-yl)methoxy)-7-((1aS,6aS)-1,1a,6,6a-tetrahydrocyclopropa[a]inden-2-yl)pyridino[4,3-d]pyrimidin-4-yl)piperazin-2-yl)acetonitrile] | 0.0022 µM | 
3 | C=C(F)C(=O)N1CCN(c2nc(OC[C@@H]3C[C@@H](F)CN3C)nc3cc(-c4cncc5cccc(Cl)c45)ccc23)C[C@@H]1CC#N [Example 129] | 0.05 µM | 
4 | C=CC(=O)N1CC[C@H]2[C@H]1CN2c1c(Cl)c(-c2cccc3c2CCCC3)cc2nc(OC[C@@]34CCCN3C[C@H](F)C4)ncc12 [Example 473] |  | 0.035 µM
5 | C=CC(=O)N1CCN(c2nc(OCC34CCCN3CCC4)nc3c(F)c(-c4cccc5c4C4CC4C5)ncc23)C[C@@H]1CC#N (stereo partly drawn) [Example 61] | 0.00071 µM | 
6 | C=C(F)C(=O)N1CC[C@@H]2[C@H]1CN2c1nc(OC[C@@H]2C[C@@H](F)CN2C)nc2c(F)c(-c3cccc4c3CCCC4)ncc12 [Example 12] | 0.08 µM | 
7 | C=C(F)C(=O)N1CCN(c2nc(OC[C@@H]3CCCN3C)nc3c(F)c(-c4ccc(F)c5c4CCCC5)ncc23)C[C@@H]1CC#N [Example 18] | 0.1 µM | 
8 | C=CC(=O)N1CCN(c2c(C#N)c(OC[C@@H]3CCCN3C)nc3cc(-c4cccc5c4CCCC5)c(Cl)cc23)C[C@@H]1CC#N [Example 622] |  | 0.231 µM
9 | C=CC(=O)N1CC[C@@H]2[C@H]1CN2c1nc(OC[C@@H]2CCCN2C)nc2cc(-c3cccc4cccc(Cl)c34)ccc12 [Example 85, 1-((1R,5R)-6-(7-(8-chloronaphthalen-1-yl)-2-(((S)-1-methylpyrrolidin-2-yl)methoxy)quinazolin-4-yl)-2,6-diazabicyclo[3.2.0]hept-2-yl)prop-2-en-1-one] | 0.006 µM | 
10 | C=C(F)C(=O)N1CCN(c2nc(OC[C@@H]3CCCN3C)nc3c(F)c(-c4cccc5c4C4CC4C5)ncc23)C[C@@H]1CC#N (stereo partly drawn) [Example 55, 2-((2S)-4-(8-fluoro-2-(((S)-1-methylpyrrolidin-2-yl)methoxy)-7-(1,1a,6,6a-tetrahydrocyclopropa[a]inden-2-yl)pyridino[4,3-d]pyrimidin-4-yl)-1-(2-fluoroacryloyl)piperazin-2-yl)acetonitrile] | 0.16 µM | 
11 | C=C(F)C(=O)N1CCN(c2nc(OCC3(CN4CCCC4)CC3)nc3c(F)c(-c4cccc5c4C4CC4C5)ncc23)C[C@@H]1CC#N (single isomer, unassigned) [Example 868] |  | 0.0066 µM
12 | C=CC(=O)N1CCN(c2nc(OCC34CCCN3CCC4)nc3c(F)c(-c4ccc(F)c5c4CCCC5)ncc23)C[C@@H]1CC#N [Example 21] | 0.007 µM | 
13 | C=CC(=O)N1CCN(c2nc(OC[C@@H]3CCCN3C)nc3c(F)c(-c4cccc5c4CC4CC54)ccc23)C[C@@H]1CC#N (single isomer, unassigned) [Example 882] |  | 0.55 µM
14 | C=CC(=O)N1CCN(c2nc(OC[C@@H]3CCCN3C)nc3nc(-c4cccc5c4CCCC5)ccc23)C[C@@H]1CC#N [Example 77, 2-((S)-1-acryloyl-4-(2-(((S)-1-methylpyrrolidin-2-yl)methoxy)-7-(5,6,7,8-tetrahydronaphthalen-1-yl)pyridino[2,3-d]pyrimidin-4-yl)piperazin-2-yl)acetonitrile] | 0.055 µM | 
15 | C=C(F)C(=O)N1CCN(c2nc(OCC34CCCN3C[C@H](F)C4)nc3cc(-c4cccc5ccc(F)c(Cl)c45)ccc23)C[C@@H]1CC#N (stereo partly drawn) [Example 100] | 0.006 µM | 
16 | C=C(F)C(=O)N1CCN(c2nc(OC[C@@]34CCCN3C[C@H](F)C4)nc3c(OC4CC4)c(-c4cccc5c4CC4CC54)c(Cl)cc23)C[C@@H]1CC#N (single isomer, unassigned) [Example 919] |  | 1.68 µM
17 | C=C(F)C(=O)N1CCN(c2nc(OC[C@@H]3C[C@@H](F)CN3C)nc3cc(-c4cccc5cccc(Cl)c45)ccc23)C[C@@H]1CC#N [Example 80] | 0.065 µM | 
18 | C=CC(=O)N1CCN(C2=C(C#N)C(OC[C@@]34CCCN3C[C@H](F)C4)=NC3C=C(c4cccc5ccc(F)c(Cl)c45)C=CC23)C[C@@H]1CC#N (stereo partly drawn) [Example 628] | 0.06 µM | 

Row | SMILES | IC50 (Homo sapiens, NCI-H358, 120 h) | IC50
19 | C=CC(=O)N1CCN(c2nc(OC[C@@H]3CCCN3C)nc3cc(-c4cncc5cccc(Cl)c45)ccc23)C[C@@H]1CC#N [Example 126, 2-((S)-1-acryloyl-4-(7-(5-chloroisoquinolin-4-yl)-2-((((S)-1-methylpyrrolidin-2-yl)methoxy)quinazolin-4-yl])piperazin-2-yl)acetonitrile] | 0.018 µM | 
20 | C=CC(=O)N1CCN(c2c(CC#N)c(OCC34CCCN3CCC4)nc3cc(-c4cccc5ccc(F)c(Cl)c45)c(F)cc23)C[C@@H]1CC#N [Example 621, (S)-4-(4-acryloyl-3-(cyanomethyl)piperazin-1-yl)-7-(8-chloro-7-fluoronaphthalen-1-yl)-6-fluoro-2-((tetrahydro-1H-pyrrolizin-7a(5H)-yl)methoxy)quinoline-3-acetonitrile] | 0.33 µM | 
21 | C=CC(=O)N1CCN(c2nc(OCC34CCCN3CCC4)nc3c(F)c(-c4cncc5cccc(Cl)c45)ccc23)C[C@@H]1CC#N [Example 162, (S)-2-(1-acryloyl-4-(7-(5-chloroisoquinolin-4-yl)-8-fluoro-2-((tetrahydro-1H-pyrrolizin-7a(5H)-yl)methoxy)quinazolin-4-yl)piperazin-2-yl)acetonitrile] | 0.002 µM | 
22 | C=C(F)C(=O)N1CCN(c2nc(OC[C@@H]3CCCN3C)nc3cc(-c4cccc5c4C4CC4C5)ccc23)C[C@@H]1CC#N (stereo partly drawn) [Example 537, 2-((2S)-1-(2-fluoroacryloyl)-4-(2-(((S)-1-methylpyrrolidin-2-yl)methoxy)-7-(1,1a,6,6a-tetrahydrocyclopropa[a]inden-2-yl)quinazolin-4-yl)piperazin-2-yl)acetonitrile] | 0.15 µM | 
23 | C=CC(=O)N1CC[C@H]2[C@H]1CN2c1nc(OC[C@@H]2CCCN2C)nc2c(F)c(-c3cccc4cccc(Cl)c34)ccc12 [Example 370, 1-((1R,5S)-6-(7-(8-chloronaphthalen-1-yl)-8-fluoro-2-(((S)-1-methylpyrrolidin-2-yl)methoxy)quinazolin-4-yl)-2,6-diazabicyclo[3.2.0]hept-2-yl)prop-2-en-1-one] | 0.01 µM | 
24 | C=C(F)C(=O)N1CCN(c2nc(OCC34CCCN3C[C@H](F)C4)nc3cc(-c4cncc5c4CCCC5)ccc23)C[C@@H]1CC#N (stereo partly drawn) [Example 149] | 0.01 µM | 
25 | C=C(F)C(=O)N1CCN(c2nc(OC[C@@H]3CCCN3C)nc3cc(-c4cccc5cccc(Cl)c45)ccc23)C[C@@H]1CC#N [Example 78] | 0.06 µM | 
26 | C=C(F)C(=O)N1CCN(c2nc(OC[C@@H]3CCCN3C)nc3c(F)c(-c4cccc5c4[C@H]4C[C@H]4C5)ncc23)C[C@@H]1CC#N [Example 57, 2-((S)-4-(8-fluoro-2-(((S)-1-methylpyrrolidin-2-yl)methoxy)-7-((1aS,6aS)-1,1a,6,6a-tetrahydrocyclopropa[a]inden-2-yl)pyridino[4,3-d]pyrimidin-4-yl)-1-(2-fluoroacryloyl)piperazin-2-yl)acetonitrile] | 0.15 µM | 
27 | C=C(F)C(=O)N1CCN(c2nc(OC[C@@H]3CCCN3C)nc3c(F)c(-c4cccc5c4CC4CC54)c(O)cc23)C[C@@H]1CC#N (stereo partly drawn) [Example 945] | 0.155 µM | 
28 | C=CC(=O)N1CCN(c2nc(OC[C@@H]3CCCN3C)nc3c(F)c(-c4cccc5c4CC(C)C5)ncc23)C[C@@H]1CC#N (stereo partly drawn) [Example 60, 2-((2S)-1-acryloyl-4-(8-fluoro-7-(2-methyl-2,3-dihydro-1H-inden-4-yl)-2-(((S)-1-methylpyrrolidin-2-yl)methoxy)pyridino[4,3-d]pyrimidin-4-yl)piperazin-2-yl)acetonitrile] | 0.07 µM | 
29 | C=CC(=O)N1CCN(c2nc(OC[C@@H]3CCCN3C)nc3c(F)c(-c4cccc5ccc(F)c(Cl)c45)c(F)cc23)C[C@@H]1CC#N [Example 431] | 0.148 µM | 
30 | C=CC(=O)N1CC[C@@H]2[C@H]1CN2c1nc(OC[C@@H]2CCCN2C)nc2c(F)c(-c3cncc4c3CCCC4)ncc12 [Example 41] | 0.015 µM | 
31 | C=CC(=O)N1CCN(c2nc(OC[C@@H]3CCCN3C)nc3c(F)c(N4CCCc5cc(F)ccc54)ccc23)C[C@@H]1CC#N [Example 616] | 0.473 µM | 
32 | C=C(F)C(=O)N1CCN(c2nc(OC[C@@H]3CCCN3C)nc3c(F)c(-c4cncc5cccc(Cl)c45)ccc23)C[C@@H]1CC#N [Example 159] | 0.018 µM | 
33 | C=CC(=O)N1CCN(c2nc(OC[C@@H]3CCCN3C)nc3c(F)c(-c4cncc5c4CCCC5)ncc23)C[C@@H]1CC#N [Example 33, 2-((S)-1-acryloyl-4-(8-fluoro-2-(((S)-1-methylpyrrolidin-2-yl)methoxy)-7-(5,6,7,8-tetrahydroisoquinoline-4-yl)pyridino[4,3-d]pyrimidin-4-yl)piperazin-2-yl)acetonitrile] | 0.025 µM | 
34 | C=CC(=O)N1CCN(c2nc(OC[C@@]34CCCN3C[C@H](F)C4)nc3c(F)c(-c4cccc5c4CCCC5)ccc23)C[C@@H]1CC#N [Example 366] | 0.003 µM | 
35 | C=CC(=O)N1CCN(c2nc(OC[C@@H]3CCCN3C)nc3c(F)c(-c4cccc5ccsc45)ncc23)C[C@@H]1CC#N [Example 51, 2-((S)-1-acryloyl-4-(7-(benzo[b]thien-7-yl)-8-fluoro-2-(((S)-1-methylpyrrolidin-2-yl)methoxy)pyridino[4,3-d]pyrimidin-4-yl)piperazin-2-yl)acetonitrile] | 0.148 µM | 
36 | C=CC(=O)N1CCN(c2nc(OC[C@@]34CCCN3C[C@H](F)C4)nc3c(OC4CC4)c(-c4cccc5ccc(F)c(Cl)c45)c(Cl)cc23)C[C@@H]1CC#N [Example 920, 2-((2S)-1-acryloyl-4-(6-chloro-7-(8-chloro-7-fluoronaphthalen-1-yl)-8-cyclopropoxy-2-((2R,7aS)-2-fluorotetrahydro-1H-pyrrolizin-7a(5H-yl)methoxy)quinazolin-4-yl)piperazin-2-yl)acetonitrile] | 0.031 µM | 

Reference: US20240109893A1, “PREPARATION AND APPLICATION METHOD OF HETEROCYCLIC COMPOUNDS AS KRAS INHIBITOR” (SHANGHAI KECHOW PHARMA, INC., priority 2020, published 2024)
